Data set [1] addresses T1, ABCG2 (Homo sapiens, UniProt Q9UNQ0, R482G).
T1 construct: full-length ABCG2 in transfected HEK293 cells (ABCG2-482-G2)
T1 sequence (Q9UNQ0 1-655 R482G): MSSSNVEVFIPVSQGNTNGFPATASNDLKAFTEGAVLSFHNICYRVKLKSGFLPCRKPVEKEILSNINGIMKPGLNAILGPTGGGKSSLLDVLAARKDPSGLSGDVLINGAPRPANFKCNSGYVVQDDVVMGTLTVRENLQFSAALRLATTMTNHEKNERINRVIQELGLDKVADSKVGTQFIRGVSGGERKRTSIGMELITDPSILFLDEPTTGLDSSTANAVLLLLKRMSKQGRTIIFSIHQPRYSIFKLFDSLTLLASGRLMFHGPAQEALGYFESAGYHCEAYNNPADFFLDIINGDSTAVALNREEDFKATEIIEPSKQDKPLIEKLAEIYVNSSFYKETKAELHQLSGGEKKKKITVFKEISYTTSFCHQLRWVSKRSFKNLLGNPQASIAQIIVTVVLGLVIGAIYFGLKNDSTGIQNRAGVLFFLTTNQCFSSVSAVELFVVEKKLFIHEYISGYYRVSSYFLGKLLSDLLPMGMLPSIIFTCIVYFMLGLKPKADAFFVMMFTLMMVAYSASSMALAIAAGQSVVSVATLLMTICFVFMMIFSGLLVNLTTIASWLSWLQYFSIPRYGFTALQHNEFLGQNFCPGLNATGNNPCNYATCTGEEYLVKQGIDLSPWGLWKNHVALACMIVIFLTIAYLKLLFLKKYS
The data set can be described thus: [3H]-mitoxantrone accumulation in transfected cells ([…]). Type of data set: cell-based.

For data set [2], the target named is T2, ABCG2 (Homo sapiens, UniProt Q9UNQ0).
T2 construct: wild-type ABCG2 in crude membranes of MCF-7 FLV1000 cells
T2 sequence (Q9UNQ0 1-655): T1 sequence (Q9UNQ0 1-655 R482G) with G482R
The data set is described as follows: competition of […]-IAAP photoaffinity labeling in crude membranes; also ATPase stimulation ([…] of maximum at […]). Type of data set: binding.

Where a chain is given by its changes, count along the chain named.

A word on the IC50: it is the concentration needed to halve the response being measured. Low values mean greater potency in that assay, high ones weaker potency in that assay. For `C#Cc1cccc(Nc2ncnc3cc4c(cc23)OCCOCCOCCO4)c1` [Icotinib], the “[3H]-mitoxantrone accumulation in transfected cells (1.0 and 5.0 μM)” value at ABCG2 [1] was “significantly increased intracellular accumulation of [^3H]-MX in both the NCI-H460 and NCI-H460/MX20 cells, as well as the ABCG2-482-R2, ABCG2-482-G2”. For the same molecule, at ABCG2 [2], the IC50 was found to be 1.61 µM.
